Counter-ions that a name gives are not always drawn. Each block holds one molecule with its values, some of them ahead of it.
Columns and labels:
hD1 and wild-type mice = assay: Seizure observation in mice; type: in vivo, mouse; details: higher doses, unpublished observation
hD1 mice [1] = assay: Locomotor activity (LMA) in hD1 mice; type: in vivo, mouse; details: hD1 mice; for Shape of LMA dose-response curve: DETQ up to 240 mg/kg
Description: Male hD1 mice, 8–10 weeks old (weighing 18 to 25 g at the time of the experiment), were used. Monitoring of mouse LMA took place in transparent plastic shoebox cages having dimensions of 45 × 25 × 20 cm, with a 1-cm depth of wood chips for absorbent bedding, and covered with a ventilated filtered plastic cage top.
Cages were placed in a rectangular frame containing a grid of 12 photocell beams in an 8 × 4 configuration (Kinder Scientific, Poway, CA) that were positioned 2.5 cm from the floor of the cage for the detection of body movements (ambulations), which were recorded by computer for analysis. Mice were placed inside individual LMA boxes for 1 hour during an acclimation period. Mice were then dosed with test compounds (oral or subcutaneous) and were replaced inside individual LMA boxes for the start of LMA. Photocell activity (total ambulations) was collected for 60 minutes using software from Hamilton Kinder (Poway, CA).
Calculation of data based on total ambulations was done using Excel (Microsoft, Redmond, WA). Graphing and statistical analysis of data were done using one-way analysis of variance followed by Dunnett’s multiple comparison test using GraphPad Prism.

hD1 mice [2] = assay: Video-tracking of horizontal motion, rearing and grooming in hD1 mice; type: in vivo, mouse
Description: The apparatus for the video-tracking assessment experiment included 12 custom-built video-tracking observation chambers and the HomeCageScan (CleverSys, Reston, VA) software system. The chambers, measuring (in inches) 8 width × 10 length × 8 height, consisted of two end walls, a back wall, a top, and a floor constructed of ¼-in. translucent white acrylic, and one side (front) constructed of clear acrylic. LED strip lighting was placed below the chamber for illumination. A color video camera (640 × 480, 30 frames per second) was placed in front of each chamber to record behavior from a side view. The chambers were located in large sound-attenuating chambers to reduce ambient room noise and isolate lighting. The cameras were connected in groups of four to a quad multiplexer (model NVQC-42N; Nuvico, Englewood, NJ), with each multiplexer connected to its own computer, which then recorded each session to an MPEG file.
At the end of the experiment the files were batch-analyzed by a computer running the CleverSys CageScan video-tracking software. This software can recognize and quantify several different behaviors, including LMA, grooming, rearing, immobility, and feeding behaviors. The current experiment examined behavior in a novel open-field environment rather than home-cage activity, which limited behaviors of interest to LMA, grooming, and rearing.
For HomeCageScan behavioral phenotyping, male D1 knock-in mice (8–12 weeks, 20–25 g body weight) were placed into the observation chambers for a 60-minute habituation session. […] All behavioral activity was monitored and scored by the HomeCageScan system.

hD1 mice [3] = assay: Locomotor activity (LMA) in hD1 mice; type: in vivo, mouse; details: nonhabituated hD1 mice, 30 min pretreatment
human D1 receptor [4] = target: T1, human D1 receptor (Homo sapiens, UniProt P21728); assay: cAMP response in HEK293 cells stably expressing the human D1 receptor; type: cell-based; details: with 12 nM dopamine; % of window between EC20 dopamine and maximum dopamine response
T1 sequence (P21728 whole entry): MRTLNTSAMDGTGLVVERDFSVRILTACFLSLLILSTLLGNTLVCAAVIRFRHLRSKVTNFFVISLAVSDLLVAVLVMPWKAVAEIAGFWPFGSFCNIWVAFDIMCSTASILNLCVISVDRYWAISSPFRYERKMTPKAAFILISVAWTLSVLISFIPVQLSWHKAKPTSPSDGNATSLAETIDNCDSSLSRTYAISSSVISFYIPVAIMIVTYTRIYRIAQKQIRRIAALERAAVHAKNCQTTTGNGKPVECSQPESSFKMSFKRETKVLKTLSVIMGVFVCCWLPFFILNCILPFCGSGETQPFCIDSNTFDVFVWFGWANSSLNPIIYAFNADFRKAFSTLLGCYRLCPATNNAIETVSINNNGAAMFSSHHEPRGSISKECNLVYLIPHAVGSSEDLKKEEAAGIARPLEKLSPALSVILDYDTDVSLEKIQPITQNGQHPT

human D1 receptor [5] = target: T1, human D1 receptor; assay: D1 receptor internalization (PathHunter, DiscoveRx)
[6] = with EC20 dopamine, 0% = EC20 dopamine response, 100% = maximum dopamine response

SMILES: CCCc1cc2c(s1)CN[C@@H]1CCc3cc(OC(C)=O)c(OC(C)=O)cc3[C@@H]21 [ABT-431, adrogolide hydrochloride]
Seizures (hD1 and wild-type mice): induced seizures

SMILES: C=CCN1CCc2c(cc(O)c(O)c2Cl)C(c2ccccc2)C1 (stereo not drawn) [SKF 82958, 9-chloro-5-phenyl-3-prop-2-enyl-1,2,4,5-tetrahydro-3-benzazepine-7,8-diol]
Shape of LMA dose-response curve (hD1 mice [1]): bell-shaped curves
Grooming (index of stereotyped behavior) (hD1 mice [2]): supplanted by grooming at higher doses
Horizontal locomotion and rearing (hD1 mice [2]): increase in horizontal locomotion and rearing at lower doses

SMILES: Oc1cc2c(cc1O)[C@H]1c3ccccc3CN[C@@H]1CC2 (racemic) [dihydrexidine, reference compound]
Shape of LMA dose-response curve (hD1 mice [1]): bell-shaped curves

SMILES: CN1CCc2cc(Cl)c(O)cc2[C@H]2c3ccccc3CC[C@@H]21 [SCH39166, (6aS,13bR)-11-chloro-7-methyl-5,6,6a,8,9,13b-hexahydronaphtho[1,2-a][3]benzazepin-12-ol]
Dose that lowered DETQ-stimulated activity (hD1 mice [3]): 0.03 mg/kg
Dose that lowered basal exploratory activity (hD1 mice [3]): 0.01 mg/kg

Top, cAMP, potentiator mode (human D1 receptor [4]): 121.0%
Pathway Preference cAMP/Internalization (human D1 receptor [5]; RA for cAMP divided by RA for internalization): 6.6
RA, Internalization (human D1 receptor [5]; top divided by EC50, with 407 nM dopamine): 7.78
Bottom, D1 receptor internalization (human D1 receptor [5]; [6]): −12.8%
Top, D1 receptor internalization (human D1 receptor [5]; [6]): 112.0%
SMILES: Cl.NC[C@@H]1O[C@H](C23CC4CC(CC(C4)C2)C3)Cc2c1ccc(O)c2O [A-77636, (1R)-3-(1-adamantyl)-1-(aminomethyl)-3,4-dihydro-1H-isochromene-5,6-diol;hydrochloride, reference compound]
LMA response on repeated once-a-day dosing (hD1 mice [1]; once daily for 4 days): completely abolished by day 2
Shape of LMA dose-response curve (hD1 mice [1]): bell-shaped curves
Horizontal locomotion and rearing (hD1 mice [2]): increase in horizontal locomotion and rearing at lower doses

— PMC5193077, “An Allosteric Potentiator of the Dopamine D1 Receptor Increases Locomotor Activity in Human D1 Knock-In Mice without Causing Stereotypy or Tachyphylaxis” (The Journal of Pharmacology and Experimental Therapeutics, 2017)
